Each block holds one compound with its values, some of them ahead of it.
Tests used:
[1] = logP determination by HPLC on a reversed-phase column (C18), EEC Directive 79/831 Annex V.A8; type: physicochemical; conditions: HPLC-MS, C18, acetonitrile (0.1% formic acid)/water (0.09% formic acid) gradient, read-out: log P
Procedure: HPLC-MS^a): mass (m/z)=462 […]. ^a) Note regarding the determination of the logP values and mass detection: The determination of the given logP values was carried out in accordance with EEC Directive 79/831 Annex V.A8 by HPLC (High Performance Liquid Chromatography) on a reversed-phase column (C18). Agilent 1100 LC system; 50*4.6 Zorbax Eclipse Plus C18 1.8 micron; mobile phase A: acetonitrile (0.1% formic acid); mobile phase B: water (0.09% formic acid); linear gradient from 10% acetonitrile to 95% acetonitrile in 4.25 min, then 95% acetonitrile for a further 1.25 min; oven temperature 55° C.; flow rate: 2.0 ml/min Mass detection is via an Agilent MSD system.
The calibration is carried out using unbranched alkan-2-ones (having 3 to 16 carbon atoms) with known logP values (determination of the logP values by the retention times using linear interpolation between two successive alkanones). The lambda-maX values were determined in the maxima of the chromatographic signals using the UV spectra from 200 nm to 400 nm.

[2] = tested on: larvae of the mustard beetle (Phaedon cochleariae); experiment: Phaedon cochleariae spray test (PHAECO); type: in vivo; conditions: for efficacy compared to similar compounds of the prior art: PHAECO spray test; for inhibition at 20 g/ha / inhibition at 100 g/ha: Phaedon cochleariae, 168 h, PHAECO, 7 dat; for inhibition at 20 g/ha: read-out: % Activity
Procedure: Phaedon Cochleariae—Spray Test (PHAECO)
(§1) • Solvents: 78.0 parts by weight of acetone • 1.5 parts by weight of dimethylformamide • Emulsifier: 0.5 part by weight of alkylaryl polyglycol ether
(§2) To produce a suitable preparation of active compound, 1 part by weight of active compound is mixed with the stated amounts of solvents and emulsifier, and the concentrate is diluted with emulsifier-containing water to the desired concentration.
After the desired period of time, the effect in % is determined 100% means that all of the beetle larvae have been killed; 0% means that none of the beetle larvae have been killed.

[3] = tested on: green peach aphid (Myzus persicae); experiment: Myzus spray test (MYZUPE); type: in vivo; conditions: for efficacy compared to similar compounds of the prior art: MYZUPE spray test
Procedure: Myzus—Spray Test (MYZUPE)
as §1, §2
Discs of Chinese cabbage leaves (Brassica pekinensis) infested by all stages of the green peach aphid (Myzus persicae) are sprayed with an active compound preparation of the desired concentration.
After the desired period of time, the effect in % is determined. 100% here means that all of the aphids have been killed; 0% means that no aphids have been killed.

[4] = tested on: greenhouse red spider mite (Tetranychus urticae); experiment: Tetranychus urticae spray test, OP-resistant (TETRUR), bean leaf discs; type: in vivo; conditions: for efficacy compared to similar compounds of the prior art: TETRUR spray test, leaf discs
Procedure: Tetranychus urticae—Spray Test; OP-resistant (TETRUR)
as §1, §2
Discs of bean leaves (Phaseolus vulgaris) which are infested by all stages of the greenhouse red spider mite (Tetranychus urticae) are sprayed with an active compound preparation of the desired concentration.
(§3) After the desired period of time, the effect in % is determined. 100% means that all of the spider mites have been killed; 0% means that none of the spider mites have been killed.

[5] = tested on: caterpillars of the armyworm (Spodoptera frugiperda); experiment: Spodoptera frugiperda spray test (SPODFR); type: in vivo; conditions: 168 h, 7 dat
Procedure: Spodoptera frugiperda—Spray Test (SPODFR)
as §2, with “• Solvents: 78.0 parts by weight of acetone • 1.5 parts by weight of dimethylformamide • Emulsifier: 0.5 part by weight of alkylaryl polyglycol ether • To” for “To”
Leaf discs of maize (Zea mays) are sprayed with an active compound preparation of the desired concentration and, after drying, populated with caterpillars of the armyworm (Spodoptera frugiperda).
After the desired period of time, the effect in % is determined. 100% means that all of the caterpillars have been killed; 0% means that none of the caterpillars have been killed.

[6] = tested on: greenhouse red spider mite (Tetranychus urticae); experiment: Tetranychus urticae spray test, OP-resistant (TETRUR), bean plants; type: in vivo; conditions: 168 h, 7 dat
Procedure: Tetranychus urticae—Spray Test, OP-resistant (TETRUR) • Solvent: 7 parts by weight of dimethylformamide • Emulsifier: 2 parts by weight of alkylaryl polyglycol ether
(§4) To produce a suitable preparation of active compound, 1 part by weight of active compound is mixed with the stated amounts of solvent and emulsifier, and the concentrate is diluted with emulsifier-containing water to the desired concentration. If the addition of ammonium salts or/and penetrants is required, these are in each case added in a concentration of 1000 ppm to the solution of the preparation.
Bean plants (Phaseolus vulgaris) which are heavily infested by all stages of the greenhouse red spider mite (Tetranychus urticae) are sprayed with an active compound preparation of the desired concentration.
as §3

[7] = tested on: greenhouse red spider mite (Tetranychus urticae); experiment: Tetranychus urticae drench test, OP-resistant, systemic treatment (TETRUR sys.); type: in vivo; conditions: soil, 336 h, 14 dat
Procedure: Tetranychus urticae—Drench Test, OP-resistant, systemic treatment (TETRUR sys.)
• Solvent: 7 parts by weight of dimethylformamide • Emulsifier: 2 parts by weight of alkylaryl polyglycol ether
as §4, with “with” for “with emulsifier-containing”
Bean plants (Phaseolus vulgaris) which are heavily infested by all stages of the greenhouse red spider mite (Tetranychus urticae) are watered with an active compound preparation of the desired concentration.
as §3

[8] = Tetranychus urticae, foliar, 144 h, TETRUR, 6 dat, read-out: % Activity
[9] = Myzus persicae, 144 h, MYZUPE, 6 dat

chromatographic logP [1]: 1.41
Compound: Cn1nc(C(F)(F)C(F)(F)F)c([N+](=O)[O-])c1C(=O)O [1-Methyl-4-nitro-3-(pentafluoroethyl)-1H-pyrazole-5-carboxylic acid]

chromatographic logP [1]: 3.55
Compound: CCC(=O)NC(C)c1cc(NC(=O)c2c(C(F)(F)F)c(C(F)(F)C(F)(F)F)nn2C)ccc1Cl (centres unmarked) [Am-28, N-{4-chloro-3-[1-(propionylamino)ethyl]phenyl}-1-methyl-3-(pentafluoroethyl)-4-(trifluoromethyl)-1H-pyrazole-5-carboxamide]

chromatographic logP [1]: 3.7
Compound: CCCC(=O)NCc1cc(NC(=O)c2c(C(F)(F)F)c(C(F)(F)C(F)(F)F)nn2C)ccc1Cl [Am-41, N-{3-[(butyrylamino)methyl]-4-chlorophenyl}-1-methyl-3-(pentafluoroethyl)-4-(trifluoromethyl)-1H-pyrazole-5-carboxamide]

Compound: CCC(=O)NCc1cc(N(CC)C(=O)c2c(C(F)(F)F)c(C(F)(F)C(F)(F)F)nn2C)ccc1F [Example 3]
efficacy compared to similar compounds of the prior art [2]: superior efficacy
inhibition at 20 g/ha [2]: 100%
efficacy compared to similar compounds of the prior art [3]: superior efficacy
inhibition at 20 g/ha ([3]; Myzus persicae, 144 h, MYZUPE, 20 g/ha, 6 dat, read-out: % Activity): 100%
efficacy compared to similar compounds of the prior art [4]: superior efficacy
inhibition at 500 g/ha [4, 8]: 100%

Compound: CCC(=O)NCc1cc(NC(=O)c2c(C(F)(F)F)c(C(F)(F)C(F)(F)F)nn2C)ccc1F [Example 4]
efficacy compared to similar compounds of the prior art [2]: superior efficacy
inhibition at 20 g/ha [2]: 100%
efficacy compared to similar compounds of the prior art [3]: superior efficacy
inhibition at 500 g/ha [3, 9]: 100%
efficacy compared to similar compounds of the prior art [4]: superior efficacy
inhibition at 500 g/ha [4, 8]: 100%

Compound: CCC(=O)NCc1c(F)ccc(NC(=O)c2c(C(F)(F)F)c(C(F)(F)C(F)(F)F)nn2C)c1F [Example 6]
efficacy compared to similar compounds of the prior art [2]: superior efficacy
inhibition at 100 g/ha [2]: 100%
inhibition at 100 g/ha [5]: 100%

chromatographic logP [1]: 2.85
Compound: CC(=O)NCc1c(F)ccc(N(C)C(=O)c2c(C(F)(F)F)c(C(F)(F)C(F)(F)F)nn2C)c1F [Example 7, N-[3-(acetamidomethyl)-2,4-difluorophenyl]-N,1-dimethyl-3-(pentafluoroethyl)-4-(trifluoromethyl)-1H-pyrazole-5-carboxamide]
inhibition at 100 g/ha [2]: 100%
inhibition at 500 g/ha [3, 9]: 100%
inhibition at 500 g/ha [4, 8]: 100%

Compound: CC(=O)NCc1cc(NC(=O)c2c(C(F)(F)F)c(C(F)(F)C(F)(F)F)nn2C)ccc1F [Example 13]
inhibition at 20 ppm [6]: 30%
inhibition at 20 ppm [7]: 90%

Compound: CCNC(=O)c1cc(NC(=O)c2c(C(F)(F)F)c(C(F)(F)C(F)(F)F)nn2C)ccc1Cl [Example Ik-66, reference compound]
inhibition at 20 ppm [6]: 0%
inhibition at 20 ppm [7]: 30%

Compound: CC(C)NC(=O)c1c(F)ccc(NC(=O)c2c(C(F)(F)F)c(C(F)(F)C(F)(F)F)nn2C)c1F [Example Ik-74, reference compound]
inhibition at 100 g/ha [2]: 33%
inhibition at 500 g/ha [3, 9]: 0%
inhibition at 500 g/ha [4, 8]: 0%
inhibition at 100 g/ha [5]: 0%

Compound: CC(C)NC(=O)c1cc(NC(=O)c2c(C(F)(F)F)c(C(F)(F)C(F)(F)F)nn2C)ccc1F [Example Ik-75, reference compound]
inhibition at 20 g/ha [2]: 0%
inhibition at 100 g/ha ([3]; Myzus persicae, 144 h, MYZUPE, 100 g/ha, 6 dat, read-out: % Activity): 0%
inhibition at 500 g/ha [3, 9]: 0%
inhibition at 100 g/ha ([4]; Tetranychus urticae, foliar, 144 h, TETRUR, 100 g/ha, 6 dat, read-out: % Activity): 0%
inhibition at 500 g/ha [4, 8]: 0%

— patent US9204645B2, “Insecticidal aromatic amides” (BAYER INTELLECTUAL PROPERTY GMBH, priority 2011, dated 2015)
